Assay results published in US7345192B2, “Reduction of hair growth” (The Gillette Company, priority 2005, dated 2008).
Like-named read-outs stand apart in the source and are kept apart here.

Legend:
[1] = Protocol: The penetration studies were carried out using Franz chambers. Hamster skin (non-flank organ region) was clipped and appropriate size pieces then cut and mounted between the lower and upper Franz cell chambers. The lower and upper chambers (with the skin in between) were then securely clamped together. A small magnetic stir bar was placed in the bottom of each chamber, 80 μL of 100× sodium azide to a final concentration of 0.2% was added as an anti-microbial agent, then the lower chamber was filled with phosphate buffered saline (PBS). PBS is added until the level in the side arm is just level with the mounted skin, slightly inverting the cells as necessary to remove any air bubbles that might occur. The Franz chambers are then placed in the appropriate size heating blocks and allowed to stand overnight at room temperature. […] Similarly, 20-40 μL of a 1% test formulation was applied over 8-10 chambers. Four hundred μL of the receptor fluid from the lower chamber was removed at 2, 4, 6, 8, 24 and 50 hours and placed in a scintillation vial. This PBS was then replaced with 400 μL of fresh PBS.
[2] = In vitro drug skin accumulation assay (tape-stripped skin after 50-hour diffusion); format: in vitro ADME, Hamster; conditions: for % Skin Deposition: skin after tape stripping of stratum corneum
Protocol: The penetration studies were carried out using Franz chambers.
After the 50-hour receiver fluid sample was taken, the diffusion set-up was dismantled. The skin section was mounted on a board and the stratum corneum skin layer was removed by tape stripping (3M Magic Tape 810). The section of the remaining skin exposed to the receiver fluid was isolated, placed in a vial containing 1 ml of Beckman Tissue Solubilizer-450, shaken for 4 days, and the resulting solution was assayed for the radiolabeled drug.

[3] = Ionization constants by potentiometric titration; format: physicochemical
Protocol: Although Schiff base formation is possible at both amino groups, sufficient selectivity can be achieved under buffered conditions or by terminating the reaction at an appropriate time. […] Three constants were obtained: pK1=0.084, pK2=6.437, pK3=10.393. Mono-conjugated Schiff base was prepared by reaction with a selected aldehyde or ketone under controlled buffer conditions.

## COC(=O)C(N)(CCCN)C(F)F (centres unmarked) [DFMO-OMe, 2,5-diamino-2-difluoromethyl-pentanoic acid methyl ester]
[1]; hamster, 4 h, 1 % formulation
  Rate of Penetration: 0.23 ± 0.18
[1]; hamster, 6 h, 1 % formulation
  Rate of Penetration: 0.21 ± 0.16
[1]; hamster, 24 h, 1 % formulation
  Rate of Penetration: 0.2 ± 0.13

## NC(CCCN=Cc1ccc2ccccc2c1)(C(=O)O)C(F)F (centres unmarked) [N-DFMO, 2-amino-2-difluoromethyl-5-[([…]aphthalene-2-ylmethylene)-amino]-pentanoic acid]
[1]
  Skin penetration, % of applied dose after 24 hr: 3.91 ± 0.71 % of applied dose

## CC(C)c1ccc(C=NCCCC(N)(C(=O)O)C(F)F)cc1 (centres unmarked) [IPB-DFMO, 2-amino-2-difluoromethyl-5-[(4-isopropyl-benzylidene)-amino]-pentanoic acid]
[1]; hamster, 24 h, 1 % formulation
  Skin penetration, % of applied dose after 24 hr: 3.31 ± 0.98 % of applied dose

## Cc1cc(C)c(C=NCCCC(N)(C(=O)O)C(F)F)c(C)c1 (centres unmarked) [M-DFMO, 2-amino-2-difluoromethyl-5-[(2,4,6-trimethyl-benzylidene)-amino]-pentanoic acid]
[1]; hamster, 24 h, 1 % formulation
  Skin penetration, % of applied dose after 24 hr: 6.68 ± 1.68 % of applied dose

## CC(C=NCCCC(N)(C(=O)O)C(F)F)=Cc1ccccc1 (centres unmarked) [MCA-DFMO, 2-amino-2-difluoromethyl-5-(2-methyl-3-phenyl-allylideneamino)-pentanoic acid]
[2]
  Relative Deposition (fold increase over unconjugated DFMO): 5.0 fold
  % Skin Deposition: 4.00 ± 3.0%
[1]; hamster, 24 h, 1 % formulation
  Skin penetration, % of applied dose after 24 hr: 3.28 ± 0.88 % of applied dose

## NCCC[C@](N)(C(=O)O)C(F)F [DFMO, α-Difluoromethylornithine]
[3]
  Ionization constant pK1: 0.084
  Ionization constant pK2: 6.437
  Ionization constant pK3: 10.393

## NC(CCCN=Cc1ccccc1)(C(=O)O)C(F)F (centres unmarked) [B-DFMO, 2-amino-5-(benzylidene-amino)-2-difluoromethyl-pentanoic acid]
[2]
  Relative Deposition (fold increase over unconjugated DFMO): 7.4 fold
  % Skin Deposition: 5.92 ± 4.0%
[1]; hamster, 2 h, 1 % formulation
  Initial Rate of Penetration: 1.24 ± 1.16
[1]; hamster, 4 h, 1 % formulation
  Initial Rate of Penetration: 1.65 ± 1.48
[1]; hamster, 6 h, 1 % formulation
  Initial Rate of Penetration: 1.71 ± 1.50
[1]; hamster, 24 h, 1 % formulation
  Level of radiolabeled drug in the receptor fluid: 10±1 % of the applied dose
  Skin penetration, % of applied dose after 24 hr: 9.63 ± 1.31 % of applied dose
[1]; hamster, 50 h, 1 % formulation
  Level of radiolabeled drug in the receptor fluid: 16±3 % of the applied dose

## COc1cc(C=NCCCC(N)(C(=O)O)C(F)F)ccc1O (centres unmarked) [V-DFMO, 2-amino-2-difluoromethyl-5-[(4-hydroxy-3-methoxy-benzylidene)-amino]-pentanoic acid]
[2]
  Relative Deposition (fold increase over unconjugated DFMO): 1.2 fold
  % Skin Deposition: 0.96 ± 0.6%
[1]; hamster, 24 h, 1 % formulation
  Skin penetration, % of applied dose after 24 hr: 3.34 ± 1.97 % of applied dose
